Holding throughout (assay type): functional
Test [1] has as its system Echinochloa crus-galli. Put plainly: Herbicidal activity against barnyard grass (Echinochloa crusgalli L. Beauv.) as the dose required for 50% control.
Test [2] deals with Setaria viridis. Briefly: Herbicidal activity against green foxtail (Setaria viridis L. Beauv.) as the dose required for 50% control.
Test [3] concerns Panicum virgatum. Briefly: Herbicidal activity against Switch grass (Panicum virgatum L.) as the dose required for 50% control.

Molecules are shown by their SMILES.

For the compound `COc1ccc(C)cc1CS(=O)(=O)c1cccc[n+]1[O-]`, the “-Log ED50” value in test [1] was 1.02 M acre-1; in test [2], 0.41 M acre-1; in test [3], 0.73 M acre-1.
Take `Cc1cc(Cl)ccc1C(C)S(=O)(=O)c1cccc[n+]1[O-]` (centres undefined): the “-Log ED50” value in test [1] turned out to be 0.84 M acre-1; in test [2], 0.79 M acre-1; in test [3] it was 0.98 M acre-1.
For `COc1ccc(CS(=O)(=O)c2cccc[n+]2[O-])cc1OC`, the entries for the “-Log ED50” value in test [1], in test [2] and in test [3] were 0.13 M acre-1, -0.01 M acre-1 and 0.23 M acre-1, respectively.
As to `CCCCOc1cccc(CS(=O)(=O)c2cccc[n+]2[O-])c1`, the “-Log ED50” value in test [1] is 0.15 M acre-1; in test [2] it was -0.15 M acre-1; in test [3], -0.15 M acre-1.
In the case of `CC(c1ccc([N+](=O)[O-])cc1)S(=O)(=O)c1cccc[n+]1[O-]` (centres undefined), the “-Log ED50” value came to 0.43 M acre-1 in test [1], 0.23 M acre-1 in test [2] and 0.43 M acre-1 in test [3].
Consider `O=S(=O)(Cc1ccccc1Oc1ccccc1)c1cccc[n+]1[O-]`, for which the results for the “-Log ED50” value in test [1], in test [2] and in test [3] were -0.12 M acre-1, -0.03 M acre-1 and 0.11 M acre-1, respectively.
Taken in the same sequence, the figures for `CC(C)c1ccc(C(C)C)c(CS(=O)(=O)c2cccc[n+]2[O-])c1` were -0.02 M acre-1, -0.02 M acre-1 and -0.02 M acre-1.
Take `N#Cc1ccccc1CS(=O)(=O)c1cccc[n+]1[O-]`: the entries for the “-Log ED50” value in test [1], in test [2] and in test [3] were 0.18 M acre-1, -0.01 M acre-1 and -0.22 M acre-1, respectively.
Take `CC(c1cccc(C(F)(F)F)c1)S(=O)(=O)c1cccc[n+]1[O-]` (centres undefined): the “-Log ED50” value in test [1] stood at 0.46 M acre-1; in test [2], 0.77 M acre-1; in test [3], 1.37 M acre-1.
With `O=S(=O)(Cc1ccccc1I)c1cccc[n+]1[O-]`, the “-Log ED50” value in test [1] was found to be 0.52 M acre-1; in test [2] it was 0.22 M acre-1; in test [3] it was 0.32 M acre-1.
As to `CC(C)c1ccc(CS(=O)(=O)c2cccc[n+]2[O-])cc1`, the -Log ED50 in test [1] was -0.1 M acre-1; in test [2], -0.1 M acre-1; in test [3], 0.62 M acre-1.
As to `Cc1ccc(C)c(CS(=O)(=O)c2cccc[n+]2[O-])c1`, the “-Log ED50” value came to 1.09 M acre-1 in test [1], 0.39 M acre-1 in test [2] and 0.99 M acre-1 in test [3].
Consider `Cc1ccc(C)c(CS(=O)(=O)c2cccc[n+]2[O-])c1C`, for which the “-Log ED50” value in test [1], in test [2] and in test [3] was 0.7 M acre-1 each time.
`CC(c1ccc(Cl)cc1)S(=O)(=O)c1cccc[n+]1[O-]` (centres undefined): the “-Log ED50” value in test [1] amounted to 0.9 M acre-1; in test [2], 0.82 M acre-1; in test [3] it was 1.14 M acre-1.
Taken in the same sequence, the figures for `CC(c1cc(C(F)(F)F)ccc1Cl)S(=O)(=O)c1cccc[n+]1[O-]` (centres undefined) were 0.91 M acre-1, 0.63 M acre-1 and 1.26 M acre-1.
With `O=S(=O)(Cc1ccccc1F)c1cccc[n+]1[O-]`, the “-Log ED50” value in test [1] was determined as 0.37 M acre-1; in test [2] it was 0.07 M acre-1; in test [3], 0.77 M acre-1.
Regarding `CC(c1cccc(Cl)c1F)S(=O)(=O)c1cccc[n+]1[O-]` (centres undefined), the “-Log ED50” value in test [1] was found to be 1.36 M acre-1; in test [2], 1.05 M acre-1; in test [3] it was 1.24 M acre-1.
For `O=S(=O)(Cc1ccccc1Cl)c1cccc[n+]1[O-]`, the “-Log ED50” value was determined as 0.85 M acre-1 in test [1], 0.43 M acre-1 in test [2] and 0.4 M acre-1 in test [3].
Taken in the same sequence, the figures for `Cc1ccc(C(C)S(=O)(=O)c2cccc[n+]2[O-])cc1C` (centres undefined) were 1.31 M acre-1, 1.07 M acre-1 and 1.24 M acre-1.
Regarding `Cc1c(Cl)ccc(C(C)S(=O)(=O)c2cccc[n+]2[O-])c1Cl` (centres undefined), the “-Log ED50” value in test [1] came out at 0.68 M acre-1; in test [2] it was 0.89 M acre-1; in test [3], 1 M acre-1.
Taken in the same sequence, the figures for `CCc1ccc(CC)c(C(C)S(=O)(=O)c2cccc[n+]2[O-])c1` (centres undefined) were 1.15 M acre-1, 1.05 M acre-1 and 1.15 M acre-1.
In the case of `COc1ccc(Br)c(CS(=O)(=O)c2cccc[n+]2[O-])c1`, the “-Log ED50” value in test [1] came out at 0.6 M acre-1; in test [2], 0.5 M acre-1; in test [3] it was 0.95 M acre-1.
In the same order, the values of `COc1cc(CS(=O)(=O)c2cccc[n+]2[O-])cc(OC)c1OC` are -0.77 M acre-1, -0.79 M acre-1 and -0.77 M acre-1.
With `O=S(=O)(Cc1c(Cl)cccc1Cl)c1cccc[n+]1[O-]`, the figures for the -Log ED50 in test [1], in test [2] and in test [3] were 0.96 M acre-1, 0.74 M acre-1 and 0.74 M acre-1, respectively.
For `CC(c1cc(Cl)ccc1Cl)S(=O)(=O)c1cccc[n+]1[O-]` (centres undefined), the results for the “-Log ED50” value in test [1], in test [2] and in test [3] were 1.07 M acre-1, 0.86 M acre-1 and 1.07 M acre-1, respectively.
For the compound `O=S(=O)(Cc1ccccc1)c1cccc[n+]1[O-]`, the “-Log ED50” value amounted to 0.29 M acre-1 in test [1], 0.14 M acre-1 in test [2] and 0.04 M acre-1 in test [3].
In the same order, the values of `O=S(=O)(Cc1c(Cl)ccc(Cl)c1Cl)c1cccc[n+]1[O-]` are 0.81 M acre-1, 0.49 M acre-1 and 0.81 M acre-1.
Taken in the same sequence, the figures for `CC(c1cc(F)ccc1F)S(=O)(=O)c1cccc[n+]1[O-]` (centres undefined) were 1.22 M acre-1, 1.17 M acre-1 and 1.22 M acre-1.
Turning to `Cc1ccc(C(C)C)cc1C(C)S(=O)(=O)c1cccc[n+]1[O-]` (centres undefined), the “-Log ED50” value in test [1] came to 0.89 M acre-1; in test [2], 0.57 M acre-1; in test [3], 0.7 M acre-1.
With `Cc1ccc(Cl)c(C(C)S(=O)(=O)c2cccc[n+]2[O-])c1` (centres undefined), the “-Log ED50” value in test [1] is 1.35 M acre-1; in test [2], 0.66 M acre-1; in test [3], 0.82 M acre-1.
As for `CC(c1ccc(S(C)(=O)=O)cc1)S(=O)(=O)c1cccc[n+]1[O-]` (centres undefined), the entries for the “-Log ED50” value in test [1], in test [2] and in test [3] were -0.43 M acre-1, -0.43 M acre-1 and -0.35 M acre-1, respectively.
With `CC(C)c1ccc(C(C)C)c(C(C)S(=O)(=O)c2cccc[n+]2[O-])c1` (centres undefined), the “-Log ED50” value in test [1] came to 0.78 M acre-1; in test [2], 0.19 M acre-1; in test [3], 0.19 M acre-1.
Take `Cc1ccc(C(F)(F)F)cc1C(C)S(=O)(=O)c1cccc[n+]1[O-]` (centres undefined): the “-Log ED50” value in test [1] was found to be 0.79 M acre-1; in test [2], 1.09 M acre-1; in test [3], 1.09 M acre-1.
Regarding `O=S(=O)(Cc1cccc(Br)c1)c1cccc[n+]1[O-]`, the results for the “-Log ED50” value in test [1], in test [2] and in test [3] were 0.16 M acre-1, -0.14 M acre-1 and 0.03 M acre-1, respectively.
Taken in the same sequence, the figures for `Cc1ccc(C)c(C(C)S(=O)(=O)c2cccc[n+]2[O-])c1` (centres undefined) were 1.3 M acre-1, 1.25 M acre-1 and 1.25 M acre-1.
As to `O=S(=O)(Cc1ccc(-c2ccccc2)cc1)c1cccc[n+]1[O-]`, the entries for the “-Log ED50” value in test [1], in test [2] and in test [3] were -0.69 M acre-1, -0.54 M acre-1 and -0.19 M acre-1, respectively.
For the compound `CC(c1c(F)cccc1Cl)S(=O)(=O)c1cccc[n+]1[O-]` (centres undefined), the “-Log ED50” value worked out at 1.35 M acre-1 in test [1], 1.35 M acre-1 in test [2] and 1.65 M acre-1 in test [3].
As for `Cc1ccccc1C(C)S(=O)(=O)c1cccc[n+]1[O-]` (centres undefined), the entries for the “-Log ED50” value in test [1], in test [2] and in test [3] were 1.58 M acre-1, 1.29 M acre-1 and 1.29 M acre-1, respectively.

Source of the values: ChEMBL document CHEMBL1122355, “Quantitative structure-activity relationships for 2-[(phenylmethyl)sulfonyl]pyridine 1-oxide herbicides” (1983).
